Experimental data: BindingDB's records for doi:10.1021/jm030603w (Purdue Pharma, 2005)
Values joined by “and” are separate entries in the source; they are usually repeats but may differ in a detail not shown here. Identical values can stand only once. Counter-ions that a name gives are not always drawn.

Columns and labels:
Test in all cases: PDE Activity Assay
[1] = target: cAMP-specific 3',5'-cyclic phosphodiesterase 4A (Homo sapiens, UniProt P27815); conditions: pH 8; 22 °C
[2] = target: cAMP-specific 3',5'-cyclic phosphodiesterase 4B (Homo sapiens, UniProt Q07343)
Chain of cAMP-specific 3',5'-cyclic phosphodiesterase 4B (Q07343 whole entry): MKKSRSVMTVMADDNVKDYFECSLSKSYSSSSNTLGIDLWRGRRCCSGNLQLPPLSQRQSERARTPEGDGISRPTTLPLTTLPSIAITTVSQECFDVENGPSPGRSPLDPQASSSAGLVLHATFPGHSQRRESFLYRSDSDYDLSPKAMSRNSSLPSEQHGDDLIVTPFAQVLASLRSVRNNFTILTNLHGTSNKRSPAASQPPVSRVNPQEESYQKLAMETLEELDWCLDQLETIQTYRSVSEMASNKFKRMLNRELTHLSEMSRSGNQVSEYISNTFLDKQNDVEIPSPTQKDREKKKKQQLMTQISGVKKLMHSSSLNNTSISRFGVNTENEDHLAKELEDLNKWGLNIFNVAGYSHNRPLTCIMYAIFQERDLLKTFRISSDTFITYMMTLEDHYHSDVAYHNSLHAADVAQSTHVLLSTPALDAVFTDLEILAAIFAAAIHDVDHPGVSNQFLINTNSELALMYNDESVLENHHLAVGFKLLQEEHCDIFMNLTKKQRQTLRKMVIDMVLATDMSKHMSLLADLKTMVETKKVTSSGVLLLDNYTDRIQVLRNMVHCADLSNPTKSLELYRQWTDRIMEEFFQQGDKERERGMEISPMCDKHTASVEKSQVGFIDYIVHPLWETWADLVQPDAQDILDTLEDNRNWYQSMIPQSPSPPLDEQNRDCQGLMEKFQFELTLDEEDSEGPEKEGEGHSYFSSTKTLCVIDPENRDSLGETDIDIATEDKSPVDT

[3] = target: cAMP-specific 3',5'-cyclic phosphodiesterase 4D (Homo sapiens, UniProt Q08499)
Chain of cAMP-specific 3',5'-cyclic phosphodiesterase 4D (Q08499 whole entry): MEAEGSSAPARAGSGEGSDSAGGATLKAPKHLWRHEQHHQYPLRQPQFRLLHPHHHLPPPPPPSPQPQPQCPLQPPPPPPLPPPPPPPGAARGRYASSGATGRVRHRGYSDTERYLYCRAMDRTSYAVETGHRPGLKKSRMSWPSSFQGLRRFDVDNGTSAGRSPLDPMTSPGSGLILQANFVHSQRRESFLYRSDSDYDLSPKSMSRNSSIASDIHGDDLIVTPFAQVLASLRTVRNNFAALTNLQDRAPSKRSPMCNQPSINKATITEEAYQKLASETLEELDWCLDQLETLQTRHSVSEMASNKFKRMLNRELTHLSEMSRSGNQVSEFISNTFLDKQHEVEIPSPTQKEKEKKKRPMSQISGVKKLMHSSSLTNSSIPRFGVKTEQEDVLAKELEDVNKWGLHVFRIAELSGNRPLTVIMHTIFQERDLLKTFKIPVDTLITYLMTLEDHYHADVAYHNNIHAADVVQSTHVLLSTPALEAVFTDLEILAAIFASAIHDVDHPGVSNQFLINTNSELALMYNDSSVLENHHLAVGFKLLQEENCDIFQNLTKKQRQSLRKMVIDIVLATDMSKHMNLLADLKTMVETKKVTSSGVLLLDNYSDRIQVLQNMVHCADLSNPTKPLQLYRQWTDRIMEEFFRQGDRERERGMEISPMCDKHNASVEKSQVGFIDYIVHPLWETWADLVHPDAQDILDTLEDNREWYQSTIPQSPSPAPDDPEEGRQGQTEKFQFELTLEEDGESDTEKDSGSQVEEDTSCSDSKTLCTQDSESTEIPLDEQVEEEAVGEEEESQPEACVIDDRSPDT

Chain of cAMP-specific 3',5'-cyclic phosphodiesterase 4A (P27815 whole entry): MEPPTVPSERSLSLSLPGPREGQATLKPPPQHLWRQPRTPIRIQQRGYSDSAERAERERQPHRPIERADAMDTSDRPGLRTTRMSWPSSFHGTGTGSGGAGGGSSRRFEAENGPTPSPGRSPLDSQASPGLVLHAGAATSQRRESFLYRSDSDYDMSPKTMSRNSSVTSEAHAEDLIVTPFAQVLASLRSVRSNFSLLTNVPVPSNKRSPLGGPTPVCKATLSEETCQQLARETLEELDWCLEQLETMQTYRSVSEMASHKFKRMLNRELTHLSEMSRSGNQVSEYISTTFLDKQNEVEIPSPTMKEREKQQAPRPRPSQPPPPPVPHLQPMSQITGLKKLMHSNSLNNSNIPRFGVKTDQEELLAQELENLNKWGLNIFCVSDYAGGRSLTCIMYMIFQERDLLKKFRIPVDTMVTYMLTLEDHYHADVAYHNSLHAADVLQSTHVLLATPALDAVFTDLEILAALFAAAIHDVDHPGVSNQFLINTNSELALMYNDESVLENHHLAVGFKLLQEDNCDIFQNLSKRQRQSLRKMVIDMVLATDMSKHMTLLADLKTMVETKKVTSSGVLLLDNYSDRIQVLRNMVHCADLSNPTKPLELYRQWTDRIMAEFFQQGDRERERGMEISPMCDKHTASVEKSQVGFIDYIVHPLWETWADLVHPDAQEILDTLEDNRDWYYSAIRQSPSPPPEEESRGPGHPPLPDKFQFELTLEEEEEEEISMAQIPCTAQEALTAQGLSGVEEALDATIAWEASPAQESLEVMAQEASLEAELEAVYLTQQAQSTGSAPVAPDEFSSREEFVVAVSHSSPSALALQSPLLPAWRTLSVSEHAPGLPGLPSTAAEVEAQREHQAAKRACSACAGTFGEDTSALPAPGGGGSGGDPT

SMILES	Ki [1] [nM]	Ki [2] [nM]	Ki [3]
COc1ccccc1COC(C)(C)c1nc2c(N)ncn(Cc3ccc(OC)c(OC4CCCC4)c3)c-2n1 [3-(3-Cyclopentyloxy-4-methoxy-benzyl)-8-[1-(2-methoxy-benzyloxy)-1-methyl-ethyl]-3H-purine-6-ylamine]	137	11	–
COc1ccc(Cn2cnc(N)c3nc(C(C)(C)OCc4ccc(F)c(F)c4)nc2-3)cc1OC1CCCC1 [3-(3-Cyclopentyloxy-4-methoxy-benzyl)-8-[1-(3,4-difluoro-benzyloxy)-1-methyl-ethyl]-3Hpurin-6-ylamine Fumarate]	244	17.3	–
COc1ccc(COC(C)(C)c2nc3c(N)ncn(Cc4ccc(OC)c(OC5CCCC5)c4)c-3n2)cc1OC [3-(3-Cyclopentyloxy-4-methoxy-benzyl)-8-[1-(3,4-dimethoxy-benzyloxy)-1-methyl-ethyl]-3Hpurin-6-ylamine Fumarate]	405	42.8	–
COc1ccc(Cn2cnc(N)c3nc(C(C)(C)OCc4ccc5c(c4)OCO5)nc2-3)cc1OC1CCCC1 [3-(3-Cyclopentyloxy-4-methoxy-benzyl)-8-[1-(3,4-methylenedioxy-benzyloxy)-1-methyl-ethyl]-3Hpurin-6-ylamine]	147	21.4	–
COc1ccc(Cn2cnc(N)c3nc(C(C)(C)OCc4cccc(F)c4)nc2-3)cc1OC1CCCC1 [3-(3-Cyclopentyloxy-4-methoxy-benzyl)-8-[1-(3-fluoro-benzyloxy)-1-methyl-ethyl]-3H-purin-6-ylamine]	208	11.6	–
COc1ccc(Cn2cnc(N)c3nc(C(C)(C)OCc4ccc(C#N)cc4)nc2-3)cc1OC1CCCC1 [3-(3-Cyclopentyloxy-4-methoxy-benzyl)-8-[1-(4-cyano-benzyloxy)-1-methyl-ethyl]-3Hpurin-6-ylamine]	1190	71.3	–
COc1ccc(COC(C)c2nc3c(N)ncn(Cc4ccc(OC)c(OC5CCCC5)c4)c-3n2)cc1 (stereo not given) [3-(3-Cyclopentyloxy-4-methoxy-benzyl)-8-[1-(4-methoxy-benzyloxy)-ethyl]-3H-purin-6-ylamine]	5200	430	–
COc1ccc(Cn2cnc(N)c3nc(C(C)(C)OCc4ccc(C)cc4)nc2-3)cc1OC1CCCC1 [3-(3-Cyclopentyloxy-4-methoxy-benzyl)-8-[1-(4-methyl-benzyloxy)-1-methyl-ethyl]-3H-purin-6-ylamine]	206	9.8	–
COc1ccc(Cn2cnc(N)c3nc(C(C)(C)OCc4ccc(C(C)(C)C)cc4)nc2-3)cc1OC1CCCC1 [3-(3-Cyclopentyloxy-4-methoxy-benzyl)-8-[1-(4-tert-butyl-benzyloxy)-1-methyl-ethyl]-3Hpurin-6-ylamine]	175	5.8	–
COc1ccc(Cn2cnc(N)c3nc(C(C)(C)OCc4ccc(OC(F)(F)F)cc4)nc2-3)cc1OC1CCCC1 [3-{[3-(cyclopentyloxy)-4-methoxyphenyl]methyl}-8-(2-{[4-(trifluoromethoxy)phenyl]methoxy}propan-2-yl)-3H-purin-6-amine]	415	26.6	–
COc1ccc(Cn2cnc(N)c3nc(C(C)(C)OCc4ccc(C(F)(F)F)cc4)nc2-3)cc1OC1CCCC1 [3-{[3-(cyclopentyloxy)-4-methoxyphenyl]methyl}-8-(2-{[4-(trifluoromethyl)phenyl]methoxy}propan-2-yl)-3H-purin-6-amine]	309	33	–
COc1ccc(Cn2cnc(N)c3nc(C(C)(C)COc4cccs4)nc2-3)cc1OC1CCCC1 [3-{[3-(cyclopentyloxy)-4-methoxyphenyl]methyl}-8-[2-methyl-1-(thiophen-2-yloxy)propan-2-yl]-3H-purin-6-amine]	236	46.9	–
COc1ccc(Cn2cnc(N)c3nc(C(C)(C)COc4ccsc4)nc2-3)cc1OC1CCCC1 [3-{[3-(cyclopentyloxy)-4-methoxyphenyl]methyl}-8-[2-methyl-1-(thiophen-3-yloxy)propan-2-yl]-3H-purin-6-amine]	223	9.5	–
COc1ccc(Cn2cnc(N)c3nc(C(C)OCc4ccc(F)cc4)nc2-3)cc1OC1CCCC1 (stereo not given) [3-{[3-(cyclopentyloxy)-4-methoxyphenyl]methyl}-8-{1-[(4-fluorophenyl)methoxy]ethyl}-3H-purin-6-amine]	3390	269	–
COc1ccc(Cn2cnc(N)c3nc(C(C)(C)OCc4ccccc4F)nc2-3)cc1OC1CCCC1 [3-{[3-(cyclopentyloxy)-4-methoxyphenyl]methyl}-8-{2-[(2-fluorophenyl)methoxy]propan-2-yl}-3H-purin-6-amine]	271	18.9	–
COc1ccc(Cn2cnc(N)c3nc(C(C)(C)OCc4ccc(Cl)c(Cl)c4)nc2-3)cc1OC1CCCC1 [3-{[3-(cyclopentyloxy)-4-methoxyphenyl]methyl}-8-{2-[(3,4-dichlorophenyl)methoxy]propan-2-yl}-3H-purin-6-amine]	166	9.7	–
COc1cccc(COC(C)(C)c2nc3c(N)ncn(Cc4ccc(OC)c(OC5CCCC5)c4)c-3n2)c1 [3-{[3-(cyclopentyloxy)-4-methoxyphenyl]methyl}-8-{2-[(3-methoxyphenyl)methoxy]propan-2-yl}-3H-purin-6-amine]	175	13	–
COc1ccc(COC(C)(C)c2nc3c(N)ncn(Cc4ccc(OC)c(OC5CCCC5)c4)c-3n2)cc1 [3-{[3-(cyclopentyloxy)-4-methoxyphenyl]methyl}-8-{2-[(4-methoxyphenyl)methoxy]propan-2-yl}-3H-purin-6-amine]	113	10.3	–
COc1ccc(Cn2cnc(N)c3nc(C(C)OCc4ccccc4)nc2-3)cc1OC1CCCC1 (stereo not given) [8-[1-(benzyloxy)ethyl]-3-{[3-(cyclopentyloxy)-4-methoxyphenyl]methyl}-3H-purin-6-amine]	15200	533	4450 nM and 640 nM and 590 nM
COc1ccc(Cn2cnc(N)c3nc(C(C)(C)OCc4ccccc4)nc2-3)cc1OC1CCCC1 [8-[2-(benzyloxy)propan-2-yl]-3-{[3-(cyclopentyloxy)-4-methoxyphenyl]methyl}-3H-purin-6-amine hydrochloride]	179	8.9	–
COc1ccc(Cn2cnc(N)c3nc(C(C)(C)OCc4ccc(Cl)cc4)nc2-3)cc1OC1CCCC1 [8-{1-[(4-Chlorobenzyl)oxy]-1-methyl-ethyl}-3-[3-cyclopentyloxy)-4-methoxybenzyl]-3H-purin-6-amine]	126	11	–
COc1cc(COC(C)(C)c2nc3c(N)ncn(Cc4ccc(OC)c(OC5CCCC5)c4)c-3n2)cc(OC)c1 [(2E)-but-2-enedioic acid; 3-{[3-(cyclopentyloxy)-4-methoxyphenyl]methyl}-8-{2-[(3,5-dimethoxyphenyl)methoxy]propan-2-yl}-3H-purin-6-amine]	225	21.9	–
